Test results: the supplement of paper PMC10307832

What was measured:
Experiment in all cases: relative viability (nuclei count vs DMSO), 5 days (fraction); higher = more cells survive
[1] = compound: COc1ccc(-c2ccc3c(N4CCOC[C@@H]4C)nc(N4CCOC[C@@H]4C)nc3n2)cc1CO [AZD8055] + COc1cc2c(Oc3ccc(NC(=O)C4(C(=O)Nc5ccc(F)cc5)CC4)cc3F)ccnc2cc1OCCCN1CCOCC1 [Foretinib] (partner 0.25 µM)
How it was run: (§1)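 Nuclei were stained with Hoechst during a one-step fixation (final 0.05% Triton X-100, 1% formaldehyde, 1 ug/ml Hoechst) carried out 5 days after dosing, then counted on 4× images. The cells, lung cancer lines in 1536-well plates, had been dosed by pin tool the day after seeding with one drug alone or a fixed anchor-drug dose plus five library-drug doses (not always all listed) in √10 steps. Relative viability is the nuclei count in treated wells divided by that in vehicle wells, and each value is the median of duplicate plates.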

[2] = compound: COc1ccc(-c2ccc3c(N4CCOC[C@@H]4C)nc(N4CCOC[C@@H]4C)nc3n2)cc1CO [AZD8055] + Cc1nc(NC(=O)N2CCC[C@H]2C(N)=O)sc1-c1ccnc(C(C)(C)C(F)(F)F)c1 [Alpelisib] (partner 2 µM)
How it was run: as §1

[3] = compound: COc1ccc(-c2ccc3c(N4CCOC[C@@H]4C)nc(N4CCOC[C@@H]4C)nc3n2)cc1CO [AZD8055] + Nc1nc2[nH]cc(CCc3ccc(C(=O)N[C@@H](CCC(=O)O)C(=O)O)cc3)c2c(=O)[nH]1 [Pemetrexed] (partner 0.2 µM)
How it was run: as §1

[4] = compound: COc1ccc(-c2ccc3c(N4CCOC[C@@H]4C)nc(N4CCOC[C@@H]4C)nc3n2)cc1CO [AZD8055] + O=C(c1cc(Cc2n[nH]c(=O)c3ccccc23)ccc1F)N1CCN(C(=O)C2CC2)CC1 [Olaparib] (partner 8 µM)
How it was run: as §1

Cell Line	relative viability ([1]; first compound 0.01 µM)	relative viability ([1]; first compound 0.03162 µM)	relative viability ([1]; first compound 0.1 µM)	relative viability ([1]; first compound 0.3162 µM)	relative viability ([1]; first compound 1 µM)	relative viability ([2]; first compound 0.01 µM)	relative viability ([2]; first compound 0.03162 µM)	relative viability ([2]; first compound 0.1 µM)	relative viability ([2]; first compound 0.3162 µM)	relative viability ([2]; first compound 1 µM)	relative viability ([3]; first compound 0.01 µM)	relative viability ([3]; first compound 0.03162 µM)	relative viability ([3]; first compound 0.1 µM)	relative viability ([3]; first compound 0.3162 µM)	relative viability ([3]; first compound 1 µM)	relative viability ([4]; first compound 0.01 µM)	relative viability ([4]; first compound 0.03162 µM)	relative viability ([4]; first compound 0.1 µM)	relative viability ([4]; first compound 0.3162 µM)	relative viability ([4]; first compound 1 µM)
NCI-H2009	1.27	1.24	1.13	0.912	0.367	1.14	1.03	0.931	0.583	0.401	1.08	1.06	1.03	0.722	0.263	0.677	0.861	0.634	0.344	0.254
NCI-H2126	1.32	1.05	0.91	0.575	0.593	0.75	0.655	0.601	0.382	0.371	0.693	0.622	0.649	0.579	0.401	0.916	0.833	0.709	0.493	0.363
LXF-289	1.05	1.02	0.962	0.763	0.72	1.02	0.923	0.742	0.567	0.515	1.11	0.996	0.935	0.765	0.651	1.07	1.01	0.928	0.641	0.57
PC-14	1.18	1.04	1.07	0.488	0.299	0.977	0.913	0.795	0.316	0.155	0.153	0.214	0.178	0.212	0.162	0.461	0.401	0.321	0.163	0.142
HOP-62	1.01	1.01	1.09	0.609	0.521	1.26	1.18	0.667	0.434	0.26	0.312	0.29	0.338	0.35	0.242	0.756	0.501	0.45	0.5	0.184
NCI-H358	1.03	0.887	0.585	0.264	0.181	0.714	0.786	0.75	0.295	0.216	0.184	0.176	0.158	0.145	0.129	0.563	0.594	0.543	0.202	0.12
SK-MES-1	0.849	0.819	0.81	0.408	0.329	0.856	0.64	0.542	0.303	0.269	0.947	0.892	0.833	0.408	0.326	0.748	0.484	0.328	0.208	0.262
NCI-H1666	0.981	1	0.969	0.694	0.615	0.884	0.696	0.621	0.47	0.438	0.917	0.878	0.895	0.751	0.716	0.875	0.81	0.771	0.714	0.674
NCI-H1355	0.865	0.77	0.712	0.332	0.278	0.677	0.472	0.332	0.215	0.222	1.06	0.91	0.772	0.316	0.235	0.694	0.622	0.553	0.269	0.266
HCC-827	1.14	0.98	1.02	0.424	0.337	0.974	0.863	0.736	0.305	0.254	0.278	0.242	0.239	0.275	0.216	0.651	0.523	0.494	0.281	0.172
HARA	0.983	0.762	0.374	0.272	0.258	0.786	0.744	0.376	0.222	0.252	–	0.214	0.281	0.259	0.192	–	0.687	0.58	0.39	0.246
HCC-366	0.979	0.913	0.687	0.428	0.417	0.479	0.243	0.169	0.0661	0.07	0.256	0.285	0.248	0.161	0.109	0.426	0.275	0.273	0.143	0.136
NCI-H322M	0.933	0.802	0.781	0.573	0.6	0.696	0.0834	0.673	0.433	0.402	0.655	0.689	0.622	0.609	0.483	0.806	0.847	0.734	0.731	0.474
NCI-H2347	0.804	0.949	0.454	0.403	0.386	1.19	0.934	0.674	0.467	0.413	0.456	0.449	0.442	0.414	0.435	0.57	0.491	0.502	0.328	0.395
